Results taken from patent US20260001928A1 (CORTERIA PHARMACEUTICALS, priority 2022, published 2026).
*1 amine or outer side, *2 acyl side, *3 side chain or, on linkers, in order; H or OH if unused. Where a SMILES comes first, the peptide text is derived from it. Side-chain parts run from the residue outwards. [ ]: non-standard residue; d: D form. The star is where a group is joined. C20 diacid = O=C(O)CCCCCCCCCCCCCCCCCCC(=O)*; C18 diacid = O=C(O)CCCCCCCCCCCCCCCCC(=O)*; C16 diacid = O=C(O)CCCCCCCCCCCCCCC(=O)*; γGlu = O=C(O)[C@H](CCC(=O)[*:2])N[*:1]; NMeI = CC[C@H](C)[C@H](NC)C(=O)O; Pentanoyl = CCCCC(=O)*; AEEA = NCCOCCOCC(=O)O; Aib = CC(C)(N)C(=O)O

Legend:
CFR1R receptor = molecular target: T1, CFR1R receptor (Homo sapiens, UniProt P34998); assay: Activity at anti-target CFR1R receptor, cAMP assay in CRF1R-overexpression CHO-K1 cells; type: cell-based; conditions: 100% = Sauvagine at 100 nM; for EC50: cAMP
T1 construct: host or cells: CHO-K1 (clone 2)
T1 sequence (P34998 24-415): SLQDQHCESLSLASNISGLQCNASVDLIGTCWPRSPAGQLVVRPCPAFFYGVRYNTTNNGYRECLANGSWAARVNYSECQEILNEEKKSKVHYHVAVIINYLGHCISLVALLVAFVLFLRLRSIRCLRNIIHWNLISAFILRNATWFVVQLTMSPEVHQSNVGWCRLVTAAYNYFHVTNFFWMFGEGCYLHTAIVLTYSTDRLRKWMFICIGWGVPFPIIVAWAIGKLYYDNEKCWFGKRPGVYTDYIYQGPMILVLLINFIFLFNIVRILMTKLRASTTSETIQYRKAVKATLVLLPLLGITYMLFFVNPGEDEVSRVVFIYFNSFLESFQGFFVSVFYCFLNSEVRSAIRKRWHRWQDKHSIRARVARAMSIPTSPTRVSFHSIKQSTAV
How it was run: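 The method mirrors that used with TeloHAEC cells. Here, thawed clone 2 cells seeded at 4000 cells/well are tested, and 100 nM Sauvagine sets the top of the activation scale.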

human CRF2a receptor = molecular target: T2, human CRF2a receptor (Homo sapiens, UniProt Q13324); assay: Activity at human CRF2a receptor, cAMP functional assay in TeloHEAC cells; type: cell-based; conditions: TeloHEAC cells stably expressing human CRF2a receptor, relative to urocortin 2 (100 nM = 100%)
T2 construct: expressed in transfected cells; host or cells: TeloHEAC cells
T2 sequence (Q13324 1-411): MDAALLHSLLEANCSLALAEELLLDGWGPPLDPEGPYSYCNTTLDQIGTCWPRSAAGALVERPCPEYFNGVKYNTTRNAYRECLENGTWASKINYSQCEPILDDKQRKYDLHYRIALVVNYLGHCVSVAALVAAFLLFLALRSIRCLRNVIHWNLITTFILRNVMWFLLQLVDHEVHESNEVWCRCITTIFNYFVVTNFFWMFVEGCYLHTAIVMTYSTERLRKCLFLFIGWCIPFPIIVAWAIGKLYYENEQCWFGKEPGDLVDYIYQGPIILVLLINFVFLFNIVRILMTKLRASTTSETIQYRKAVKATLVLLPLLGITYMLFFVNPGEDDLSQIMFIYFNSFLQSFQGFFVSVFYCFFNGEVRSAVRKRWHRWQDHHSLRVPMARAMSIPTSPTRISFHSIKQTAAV
How it was run: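 cAMP accumulation was measured by HTRF 665/620 nm ratio after 30 min at 37° C compound exposure (16 twofold dilutions) of CRF2a-expressing TeloHEAC cells, 10000/well, in HEPES-buffered HBSS plus IBMX. Activity was normalised to urocortin 2 at 100 nM (100%), and EC50 was the concentration giving half-maximal activation.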

[1] = Chemical stability in buffer (pH 7.4 / pH 4.5), % purity loss; type: physicochemical; conditions: 40° C. vs 5° C., 14 or 28 days
How it was run: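 LC-UV gave % loss after 14 or 28 days of storage at 5 °C or 40 °C. Samples were diluted supernatants from compound incubated 1 h at room temperature at 10 mg/mL target, in 100 mM acetate pH 4.5 or 100 mM phosphate pH 7.4.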

[2] = In vitro subcutaneous tissue supernatant (SCts) stability and metabolite identification, rat; type: in vitro ADME; set-up: remaining at 2 h: dose or concentration left out as unconfirmed; conditions: for remaining at 2 h: male, Sprague Dawley, rat subcutaneous tissue supernatant (SCts), 37° C
Procedure: In vitro metabolic stability in subcutaneous tissue supernatant (SCts) was studied in male Sprague Dawley rats. Test compounds were incubated […] for 2 hours at 37° C.
Software aided in vitro metabolite identification on SCts stability samples was performed using either Metabolite Pilot (Sciex) or Biopharma Finder (Thermo). In addition, metabolite identification using Metabolite Pilot was performed on plasma samples of Comp Y following SC administration to rat at 1 mg/kg.

SMILES	Emax (% I) (CFR1R receptor)	EC50 (CFR1R receptor) [nM]	EC50 (human CRF2a receptor) [nM]	Buffer stability pH 4.5 % purity loss ([1]; 100 mM acetate buffer pH 4.5)	Buffer stability pH 7.4 % purity loss ([1]; 100 mM phosphate buffer pH 7.4)	remaining at 2 h [2] [%]	major metabolic soft spot, in vitro ([2]; in vitro soft spot identification, rat SCts)
CC[C@H](C)[C@H](NC)C(=O)N[C@H](C(=O)N[C@@H](CC(C)C)C(=O)N[C@@H](CO)C(=O)N[C@@H](CC(C)C)C(=O)N[C@@H](CC(=O)O)C(=O)N[C@@H](C(=O)N1CCC[C@H]1C(=O)N[C@H](C(=O)N[C@@H](CCCCN)C(=O)N[C@@H](CC(C)C)C(=O)N[C@@H](CCCCNC(=O)CC[C@H](NC(=O)CCCCCCCCCCCCCCCCCCC(=O)O)C(=O)O)C(=O)N[C@@H](CCCCN)C(=O)N[C@H](C(=O)N[C@@H](CC(C)C)C(=O)N[C@@H](CC(C)C)C(=O)N[C@@H](CCC(=O)O)C(=O)N[C@@H](CCC(N)=O)C(=O)N[C@@H](CCC(=O)O)C(=O)N[C@@H](CCCCN)C(=O)N[C@@H](CCC(N)=O)C(=O)N[C@@H](CCCCN)C(=O)N[C@@H](CCCCN)C(=O)N[C@@H](CCC(N)=O)C(=O)N[C@@H](CCCNC(=N)N)C(=O)N[C@@H](CCC(=O)O)C(=O)N[C@@H](CCC(N)=O)C(=O)N[C@@H](C)C(=O)N[C@@H](CCC(=O)O)C(=O)N[C@H](C(=O)N[C@@H](CC(N)=O)C(=O)NC(C)(C)C(=O)N[C@@H](CCC(N)=O)C(=O)N[C@H](C(=O)N[C@@H](CC(C)C)C(=O)N[C@@H](C)C(=O)N[C@@H](CCC(N)=O)C(=O)N[C@H](C(N)=O)C(C)C)[C@@H](C)CC)[C@@H](C)O)[C@@H](C)CC)[C@@H](C)CC)C(C)C)C(C)C [compound 214] (H-[NMeI]VLSLD[dV]PIKLK([γGlu-C20 diacid])KILLEQEKQKKQREQAETN[Aib]QILAQV-NH2)	34	> 250	0.12	0.0/0.0 ^ %	0.0/0.0 ^ %	72	–
CC[C@H](C)[C@H](N)C(=O)N[C@H](C(=O)N[C@@H](CC(C)C)C(=O)N[C@@H](CO)C(=O)N[C@@H](CC(C)C)C(=O)N[C@@H](CC(=O)O)C(=O)N[C@H](C(=O)N1CCC[C@H]1C(=O)N[C@H](C(=O)N[C@@H](CCCCN)C(=O)N[C@@H](CC(C)C)C(=O)N[C@@H](CCCCNC(=O)CC[C@H](NC(=O)CCCCCCCCCCCCCCC(=O)O)C(=O)O)C(=O)N[C@@H](CCC(N)=O)C(=O)N[C@H](C(=O)N[C@@H](CC(C)C)C(=O)N[C@@H](CC(C)C)C(=O)N[C@@H](CCCCN)C(=O)N[C@@H](CCC(N)=O)C(=O)N[C@@H](CCC(=O)O)C(=O)N[C@@H](CCCNC(=N)N)C(=O)N[C@@H](CCC(N)=O)C(=O)N[C@@H](CCCCN)C(=O)N[C@@H](CCCCN)C(=O)N[C@@H](CCC(N)=O)C(=O)N[C@@H](CCCNC(=N)N)C(=O)N[C@@H](CCC(=O)O)C(=O)N[C@@H](CCC(N)=O)C(=O)N[C@@H](C)C(=O)N[C@@H](CCC(=O)O)C(=O)N[C@@H](CCCCN)C(=O)N[C@@H](CC(N)=O)C(=O)N[C@@H](CCCCN)C(=O)N[C@@H](CCC(N)=O)C(=O)N[C@H](C(=O)N[C@@H](CC(C)C)C(=O)N[C@@H](CCC(=O)O)C(=O)N[C@@H](CCC(N)=O)C(=O)N[C@H](C(N)=O)C(C)C)[C@@H](C)CC)[C@@H](C)CC)[C@@H](C)CC)C(C)C)C(C)C [151 (CompX)] (H-IVLSLDVPIKLK([γGlu-C16 diacid])QILLKQERQKKQREQAEKNKQILEQV-NH2)	–	–	–	–	–	0	–
CC[C@H](C)[C@H](N)C(=O)N[C@H](C(=O)N[C@@H](CC(C)C)C(=O)N[C@@H](CO)C(=O)N[C@@H](CC(C)C)C(=O)N[C@@H](CC(=O)O)C(=O)N[C@@H](C(=O)N1CCC[C@H]1C(=O)N[C@H](C(=O)N[C@@H](CCCCN)C(=O)N[C@@H](CC(C)C)C(=O)N[C@@H](CCCCNC(=O)CC[C@H](NC(=O)CCCCCCCCCCCCCCC(=O)O)C(=O)O)C(=O)N[C@@H](CCC(N)=O)C(=O)N[C@H](C(=O)N[C@@H](CC(C)C)C(=O)N[C@@H](CC(C)C)C(=O)N[C@@H](CCCCN)C(=O)N[C@@H](CCC(N)=O)C(=O)N[C@@H](CCC(=O)O)C(=O)N[C@@H](CCCNC(=N)N)C(=O)N[C@@H](CCC(N)=O)C(=O)N[C@@H](CCCCN)C(=O)N[C@@H](CCCCN)C(=O)N[C@@H](CCC(N)=O)C(=O)N[C@@H](CCCNC(=N)N)C(=O)N[C@@H](CCC(=O)O)C(=O)N[C@@H](CCC(N)=O)C(=O)N[C@@H](C)C(=O)N[C@@H](CCC(=O)O)C(=O)N[C@@H](CCCCN)C(=O)N[C@@H](CC(N)=O)C(=O)N[C@@H](CCCCN)C(=O)N[C@@H](CCC(N)=O)C(=O)N[C@H](C(=O)N[C@@H](CC(C)C)C(=O)N[C@@H](CCC(=O)O)C(=O)N[C@@H](CCC(N)=O)C(=O)N[C@H](C(N)=O)C(C)C)[C@@H](C)CC)[C@@H](C)CC)[C@@H](C)CC)C(C)C)C(C)C [SEQ ID No. 151, reference compound] (H-IVLSLD[dV]PIKLK([γGlu-C16 diacid])QILLKQERQKKQREQAEKNKQILEQV-NH2)	–	–	–	–	–	–	N-terminus
CC[C@H](C)[C@H](N)C(=O)N[C@H](C(=O)N[C@@H](CC(C)C)C(=O)N[C@@H](CO)C(=O)N[C@@H](CC(C)C)C(=O)N[C@@H](CC(=O)O)C(=O)N[C@H](C(=O)N1CCC[C@H]1C(=O)N[C@H](C(=O)N[C@@H](CCCCN)C(=O)N[C@@H](CC(C)C)C(=O)N[C@@H](CCCCNC(=O)COCCOCCNC(=O)COCCOCCNC(=O)CC[C@H](NC(=O)CCCCCCCCCCCCCCCCC(=O)O)C(=O)O)C(=O)N[C@@H](CCCCN)C(=O)N[C@H](C(=O)N[C@@H](CC(C)C)C(=O)N[C@@H](CC(C)C)C(=O)N[C@@H](CCC(=O)O)C(=O)N[C@@H](CCC(N)=O)C(=O)N[C@@H](CCC(=O)O)C(=O)N[C@@H](CCCCN)C(=O)N[C@@H](CCC(N)=O)C(=O)N[C@@H](CCCCN)C(=O)N[C@@H](CCCCN)C(=O)N[C@@H](CCC(N)=O)C(=O)N[C@@H](CCCNC(=N)N)C(=O)N[C@@H](CCC(=O)O)C(=O)N[C@@H](CCC(N)=O)C(=O)N[C@@H](C)C(=O)N[C@@H](CCC(=O)O)C(=O)N[C@H](C(=O)N[C@@H](CC(N)=O)C(=O)N[C@@H](CCCCN)C(=O)N[C@@H](CCC(N)=O)C(=O)N[C@H](C(=O)N[C@@H](CC(C)C)C(=O)N[C@@H](C)C(=O)N[C@@H](CCC(N)=O)C(=O)N[C@H](C(N)=O)C(C)C)[C@@H](C)CC)[C@@H](C)O)[C@@H](C)CC)[C@@H](C)CC)C(C)C)C(C)C [149 (CompY)] (H-IVLSLDVPIKLK([AEEA-AEEA-γGlu-C18 diacid])KILLEQEKQKKQREQAETNKQILAQV-NH2)	–	–	–	–	–	4	–
CCCCC(=O)N[C@H](C(=O)N[C@@H](CC(C)C)C(=O)N[C@@H](CO)C(=O)N[C@@H](CC(C)C)C(=O)N[C@@H](CC(=O)O)C(=O)N[C@@H](C(=O)N1CCC[C@H]1C(=O)N[C@H](C(=O)N[C@@H](CCCCN)C(=O)N[C@@H](CC(C)C)C(=O)N[C@@H](CCCCNC(=O)COCCOCCNC(=O)COCCOCCNC(=O)CC[C@H](NC(=O)CCCCCCCCCCCCCCCCC(=O)O)C(=O)O)C(=O)N[C@@H](CCCCN)C(=O)N[C@H](C(=O)N[C@@H](CC(C)C)C(=O)N[C@@H](CC(C)C)C(=O)N[C@@H](CCC(=O)O)C(=O)N[C@@H](CCC(N)=O)C(=O)N[C@@H](CCC(=O)O)C(=O)N[C@@H](CCCCN)C(=O)N[C@@H](CCC(N)=O)C(=O)N[C@@H](CCCCN)C(=O)N[C@@H](CCCCN)C(=O)N[C@@H](CCC(N)=O)C(=O)N[C@@H](CCCNC(=N)N)C(=O)N[C@@H](CCC(=O)O)C(=O)N[C@@H](CCC(N)=O)C(=O)N[C@@H](C)C(=O)N[C@@H](CCC(=O)O)C(=O)N[C@H](C(=O)N[C@@H](CC(N)=O)C(=O)N[C@H](C(=O)N[C@@H](CCC(N)=O)C(=O)N[C@H](C(=O)N[C@@H](CC(C)C)C(=O)N[C@@H](C)C(=O)N[C@@H](CCC(N)=O)C(=O)N[C@H](C(N)=O)C(C)C)[C@@H](C)CC)C(C)C)[C@@H](C)O)[C@@H](C)CC)[C@@H](C)CC)C(C)C)C(C)C [compound 121] (Pentanoyl-VLSLD[dV]PIKLK([AEEA-AEEA-γGlu-C18 diacid])KILLEQEKQKKQREQAETNVQILAQV-NH2)	6	> 250	5.76	–	–	77	–
